Data taken from paper PMC5905120, “An innovative immunotherapeutic strategy for ovarian cancer: CLEC10A and glycomimetic peptides” (Journal for Immunotherapy of Cancer, 2018).
Like-named read-outs stand apart in the source and are kept apart here. Bridges are numbered along the chain shown (N, C = ends). Roman numbers before positions name the chains, in order. Where no end group is shown, it is not given here.

Tests used:
[1] = biological target: T1, human ASGPR-1 (Homo sapiens, UniProt P07306); experiment: Solid-phase binding to recombinant human ASGPR-1; conditions: Fig. 2a, representative of 3 independent experiments
T1 construct: purchased R&D Systems
T1 sequence (P07306 62-291 limits assumed): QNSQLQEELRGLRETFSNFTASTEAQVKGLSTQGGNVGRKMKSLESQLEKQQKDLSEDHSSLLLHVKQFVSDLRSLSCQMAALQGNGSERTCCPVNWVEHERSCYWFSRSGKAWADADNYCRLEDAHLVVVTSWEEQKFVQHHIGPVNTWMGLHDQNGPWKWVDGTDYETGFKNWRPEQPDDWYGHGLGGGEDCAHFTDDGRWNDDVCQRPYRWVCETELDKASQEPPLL
Method: (§1) Solid-phase binding assays were performed with streptavidin-, protein A/G-, or Nickel-coated microtiter plates (Pierce). His-tagged or Fc-fusion recombinant receptors (R&D Systems, Minneapolis, MN) were reconstituted in PBS. Sufficient receptors were added to wells to saturate the coating. His-tagged receptors were added to each well at a 5-fold excess over the stated capacity of the Ni coating to minimize non-specific binding of the peptide. Wells were washed three times with binding buffer (25 mM Tris HCl, pH 7.4, 150 mM NaCl, 0.05% Tween-20) to remove unbound receptor and 50 μL of 2 μM biotinylated peptide in binding buffer were added and allowed to incubate for 1 h. The wells were washed four times with binding buffer and then incubated with 50 μL of 1 μg/mL streptavidin conjugated with peroxidase (Sigma-Aldrich) for 1 h. The wells were washed five times with binding buffer and 50 μL of peroxidase substrate (1-Step™ Ultra TMB, Pierce) were added. After several minutes to allow color development, the reaction was stopped with 50 μL 1 M H3PO4 and absorbance was measured at 450 nm. Bound streptavidin was quantitated by the specific activity of peroxidase (absorbance/ng protein conjugate/min) under the conditions of the assay.
Solid-phase binding assays were performed with recombinant human receptors. Three variations of the binding assay were used in this study, all of which allowed the arms of the tetravalent peptide to have full flexibility. (i) Biotinylated peptide was bound in microtiter wells coated with streptavidin and incubated with recombinant human receptors. After extensive washing, the bound receptor was measured by peroxidase conjugated to a receptor-specific antibody. (ii) The extracellular domains of receptors, which were fused with the Fc domain of immunoglobulin IgG, were bound in wells coated with protein A/G. Biotinylated peptide was incubated with the receptors and, after extensive washing, bound peptide was measured with streptavidin conjugated with peroxidase. Or (iii), recombinant receptors with a poly-His tag were bound to Nickel-coated wells and incubated with biotinylated peptide. svL4 and sv6D contain His residues (see Table 1) and can bind to the Ni coating, which was minimized by adding sufficient poly-His-tagged receptor to saturate the Ni coating.

[2] = test system: DC-SIGN; experiment: Solid-phase binding to DC-SIGN; design: species or system human; conditions: Fig. 2b
Method: as §1, with “The wells were washed five times with binding buffer and 50 μL of peroxidase substrate (1-Step™ Ultra TMB, Pierce) were added.” left out
Solid-phase binding assays were performed with recombinant human receptors. […] After extensive washing, the bound receptor was measured by peroxidase conjugated to a receptor-specific antibody. […]

[3] = test system: serum cytokines/chemokines (mouse L-308 membrane array); experiment: Serum cytokine array, healthy Balb/c mice; assay type: in vivo, mouse (Balb/c)
Method: Ratios of treated vs. untreated samples obtained in a separate experiment with healthy Balb/c mice are shown in the right-hand column of Table 3 for comparison. The most significant increase in the serum of healthy mice treated with the peptide was in the amount of soluble HVEM (Herpes virus entry mediator, also designated TNFRSF14), which was a prominent protein in serum and increased approximately 10-fold within 4 h after treatment. In the tumor-bearing mice, the level of soluble HVEM in treated animals was similar to that in treated healthy mice, but the level in untreated animals was higher than that in healthy control mice.

[4] = test system: brain glioma; conditions: in combination with brief radiation; ref [48]; cited from earlier work
Excerpt: We asked whether the collective evidence of the role of ligands of CLEC10A, such as promoting DC maturation, T cell activation, and initiation of an immune response would coalesce into an effective anti-cancer therapy. To achieve this goal, the ligand should serve as a ‘trigger’ to initiate a cascade of events that will lead to activation of the immune system. Given that natural ligands of CLEC10A that contain GalNAc bind with low affinity and are antigenic, we considered whether a multivalent peptide mimetic of GalNAc would serve this purpose. We previously described ef ...

[5] = test system: serum cytokines/chemokines (mouse L-308 membrane array); assay type: in vivo; conditions: 0.1 nmole/g s.c., 4 h, three animals pooled
Method: At 4 h post dose, terminal blood was pooled from 3 animals per group and prepared for serum. Shown in Fig. S3 are the relative levels of cytokines/chemokines in sera in response to injections of 0.1 (orange bars) or 1.0 nmole/g (grey bars) svL4 as compared with animals injected with PBS (blue).

[6] = healthy mice, separate experiment, three animals pooled
[7] = healthy mice, separate experiment, three animals pooled, * control value negligible or low
[8] = * control value negligible or low

## I: VQATQSNQHTPRGGGSKK-NH2 / II: VQATQSNQHTPRGGGSK / III: VQATQSNQHTPRGGGS / IV: VQATQSNQHTPRGGGS (amide I:17-IV:C, I:18-II:C, II:17-III:C) [svL4]
[1]
  binding to ASGPR-1: also to ASGPR-1
[2]
  binding to DC-SIGN: did not bind significantly
[3]; [6]
  ratio treated/untreated serum CCL1: No change
  ratio treated/untreated serum IFN-γ: No change
  ratio treated/untreated serum IL-1α: 0.86
  ratio treated/untreated serum IL-12p70: No change
  ratio treated/untreated serum IL-16: 0.57
  ratio treated/untreated serum IL-27: 0.55
  ratio treated/untreated serum Lymphotactin: 2.6
  ratio treated/untreated serum Lymphotoxin-α: 0.74
  ratio treated/untreated serum MIP-2/CXCL2: No change
  ratio treated/untreated serum Pentraxin3: 0.21
  ratio treated/untreated serum SPARC: No change
  ratio treated/untreated serum TIMP-2: 0.45
  ratio treated/untreated serum TLR2: 0.37
  ratio treated/untreated serum TNFα: 0.21
  ratio treated/untreated serum sHVEM: 10
[3]; [7]
  ratio treated/untreated serum IL-28: High*
  ratio treated/untreated serum IL-31: High*
[3]; within 4 h after treatment
  increase of soluble HVEM in serum: approximately 10 fold
[4]
  efficacy in murine brain glioma model: efficacy
[5]
  ratio treated/untreated serum CCL1: 2.5
  ratio treated/untreated serum IL-1α: 2.7
  ratio treated/untreated serum IL-12p70: 3.5
  ratio treated/untreated serum IL-16: 4
  ratio treated/untreated serum IL-27: 4.5
  ratio treated/untreated serum IL-28: 4.3
  ratio treated/untreated serum IL-31: 3.5
  ratio treated/untreated serum Lymphotactin: ~ 3
  ratio treated/untreated serum MIP-2/CXCL2: ~ 6
  ratio treated/untreated serum Pentraxin3: ~ 4
  ratio treated/untreated serum SPARC: ~ 5
  ratio treated/untreated serum TIMP-2: 3
  ratio treated/untreated serum TLR2: 4.2
  ratio treated/untreated serum sHVEM: ~ 2
[5]; [8]
  ratio treated/untreated serum IFN-γ: High^*
  ratio treated/untreated serum Lymphotoxin-α: 12.5*
  ratio treated/untreated serum TNFα: 45*
